Consider 2 molecules from the NIST ThermoML archive (doi:10.1016/j.tca.2014.04.012).

± gives the expanded uncertainty stated by the source.

For this data set the following is noted: Crystal; visual observation.

Take `CCN1C(=O)N(CC)C2NC(=O)NC21` (configuration not stated): the Normal melting temperature worked out at 310.00 ± 2 °C. For the molecule `CN1C(=O)N(C)C2NC(=O)NC21` (configuration not stated), the Normal melting temperature was 260.00 ± 2 °C.
